Reference: patent US6093732A, “4-hydroxyquinoline-3-carboxamides and hydrazides as antiviral agents” (Pharmacia & Upjohn Company, priority 1998, dated 2000)

target: T1, HCMV polymerase (Human cytomegalovirus, UniProt P08546); assay: HCMV polymerase scintillation proximity assay (SPA), modified version; type: biochemical; conditions: CMV polymerase; Table 1; modified assay with 4.5 mM DTT, compounds in 100% DMSO; read-out: Antiviral Selective Polymerase IC50 Values, CMV
T1 construct: made in house; host or cells: recombinant baculovirus-infected SF-9 cells
T1 sequence (P08546 whole entry): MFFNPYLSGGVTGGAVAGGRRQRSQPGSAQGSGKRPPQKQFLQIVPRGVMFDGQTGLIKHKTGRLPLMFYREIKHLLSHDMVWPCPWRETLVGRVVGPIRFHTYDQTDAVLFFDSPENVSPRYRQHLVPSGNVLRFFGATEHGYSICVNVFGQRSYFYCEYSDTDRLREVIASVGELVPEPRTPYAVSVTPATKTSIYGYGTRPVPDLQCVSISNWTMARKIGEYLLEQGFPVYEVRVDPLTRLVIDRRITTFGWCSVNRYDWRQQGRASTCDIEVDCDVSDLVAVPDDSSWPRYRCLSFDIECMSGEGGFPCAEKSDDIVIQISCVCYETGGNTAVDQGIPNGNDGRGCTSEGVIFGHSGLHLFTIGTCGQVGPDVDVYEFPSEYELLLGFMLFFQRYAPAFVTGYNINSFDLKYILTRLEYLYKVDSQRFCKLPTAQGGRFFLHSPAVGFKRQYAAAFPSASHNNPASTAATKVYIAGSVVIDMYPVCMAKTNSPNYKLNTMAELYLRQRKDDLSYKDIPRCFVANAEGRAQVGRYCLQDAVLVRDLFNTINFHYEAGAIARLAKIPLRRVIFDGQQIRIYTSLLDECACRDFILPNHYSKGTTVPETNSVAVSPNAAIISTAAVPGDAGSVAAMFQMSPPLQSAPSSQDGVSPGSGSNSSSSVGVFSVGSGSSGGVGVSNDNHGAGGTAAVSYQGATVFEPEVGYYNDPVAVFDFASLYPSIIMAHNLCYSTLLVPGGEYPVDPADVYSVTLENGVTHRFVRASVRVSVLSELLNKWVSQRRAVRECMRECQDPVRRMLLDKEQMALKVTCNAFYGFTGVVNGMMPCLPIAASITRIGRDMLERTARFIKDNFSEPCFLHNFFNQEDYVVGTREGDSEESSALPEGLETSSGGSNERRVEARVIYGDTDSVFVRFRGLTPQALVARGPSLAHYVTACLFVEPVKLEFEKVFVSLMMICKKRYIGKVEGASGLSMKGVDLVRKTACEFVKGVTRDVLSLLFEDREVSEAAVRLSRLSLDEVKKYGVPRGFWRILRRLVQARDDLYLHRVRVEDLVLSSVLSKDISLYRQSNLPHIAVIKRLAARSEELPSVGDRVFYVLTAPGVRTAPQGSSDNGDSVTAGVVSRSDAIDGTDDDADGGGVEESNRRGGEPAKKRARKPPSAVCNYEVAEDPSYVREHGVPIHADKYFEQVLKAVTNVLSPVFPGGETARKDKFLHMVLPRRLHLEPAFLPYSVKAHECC
Summary of the method: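 SPA measuring 3H-dTTP (90 nM) incorporation on 6 nM biotinylated poly(dA)-oligo(dT) by SF-9-expressed enzyme, pH 7.5 HEPES/KCl/MgCl2/BSA buffer with or without 2 mM CHAPS. Run at 25° C or 37° C, stopped with EDTA while linear (HCMV 30 min); IC50 from linear regression. Modified format adds 4.5 mM DTT, compounds diluted in 100% DMSO.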

Going from `C[S+]([O-])c1cc(F)c2ncc(C(=O)NCc3ccc(Cl)cc3)c(O)c2c1` (stereo not shown) [Example 175, N-(4-Chlorobenzyl)-8-fluoro-4-hydroxy-6-(methylsulfinyl)-3-quinolinecarboxamide] to `Cc1cc(F)c2ncc(C(=O)NCc3ccc(Cl)cc3)c(O)c2c1` [Example 38, N-[(4-Chlorophenyl)methyl]-8-fluoro-4-hydroxy-6-methyl-3-quinolinecarboxamide], the IC50 falls from 7.2 µM to 3.2 µM (2.2-fold). The second is the more potent here.

`O=C(NCc1ccc(Cl)cc1)c1cnc2cccc(C(F)(F)F)c2c1O` [Example 76, N-((4-Chlorophenyl)methyl)-4-hydroxy-5-trifluoromethyl-3-quinolinecarboxamide] and `O=C(NCc1ccc(Cl)cc1)c1cnc2c(O)cccc2c1O` [Example 45, N-[(4-Chlorophenyl)methyl]-4,8-dihydroxy-3-quinoline-carboxamide] are within 1.5-fold of each other in IC50: 5.2 µM for the first, 4.6 µM for the second.

`COc1ccc(CNS(=O)(=O)c2cc(F)c3ncc(C(=O)NCc4ccc(Cl)cc4)c(O)c3c2)c(OC)c1` [Example 241, N-(4-chlorobenzyl)-6-{[(2,4-dimethoxybenzyl)amino]sulfonyl}-8-fluoro-4-hydroxy-3-quinolinecarboxamide] and `COc1ccc(CNS(=O)(=O)c2cc(F)c3ncc(C(=O)NCc4ccc(Cl)cc4)c(O)c3c2)cc1` [Example 221, N-(4-chlorobenzyl)-8-fluoro-4-hydroxy-6-{[(4-methoxybenzyl)amino]sulfonyl}-3-quinolinecarboxamide] are within 1.5-fold of each other in IC50: 16 µM for the first, 12.5 µM for the second.

Compared with `CS(=O)(=O)c1cc(F)c2ncc(C(=O)NCc3ccc(Cl)cc3)c(O)c2c1` [Example 176, N-(4-Chlorobenzyl)-8-fluoro-4-hydroxy-6-(methylsulfonyl)-3-quinolinecarboxamide], `O=C(NCc1ccc(Cl)cc1)c1cnc2c(F)cc(S(=O)(=O)NCCO)cc2c1O` [Example 197, N-(4-Chlorobenzyl)-8-fluoro-4-hydroxy-6-{[(2-hydroxyethyl)amino]-sulfonyl}-3-quinolinecarboxamide] is 1.7-fold higher in IC50: 11.4 µM for the first, 19.6 µM for the second.

Going from `O=C(NCc1ccc(Cl)cc1)c1cnc2c(F)cc(S(=O)(=O)NCC(O)CO)cc2c1O` (stereo not shown) [Example 224, N-(4-chlorobenzyl)-6-{[(2,3-dihydroxypropyl)amino]sulfonyl}-8-fluoro-4-hydroxy-3-quinolinecarboxamide] to `CCSCCNS(=O)(=O)c1cc(F)c2ncc(C(=O)NCc3ccc(Cl)cc3)c(O)c2c1` [Example 247], the IC50 falls from 21.6 µM to 10.2 µM (2.1-fold). The second is the more potent here.

`O=C(NCc1ccc(Cl)cc1)c1cnc2c(F)cc(C(=O)N3CCOCC3)cc2c1O` [Example 180, N-(4-Chlorobenzyl)-8-fluoro-4-hydroxy-6-(4-morpholinylcarbonyl)-3-quinolinecarboxamide] and `O=C(NCc1ccc(Cl)cc1)c1cnc2c(F)cc(S(=O)(=O)N3CCOCC3)cc2c1O` [Example 198, N-(4-Chlorobenzyl)-8-fluoro-4-hydroxy-6-(4-morpholinylsulfonyl)-3-quinolinecarboxamide] are within 1.5-fold of each other in IC50: 28.2 µM for the first, 21 µM for the second.

Going from `Cc1nnc(-c2cc(F)c3ncc(C(=O)NCc4ccc(Cl)cc4)c(O)c3c2)s1` [Example 100, N-(4-Chlorobenzyl)-8-fluoro-4-hydroxy-6-(5-methyl-1,3,4-thiadiazol-2-yl)-3-quinolinecarboxamide] to `CC(O)CCc1cc(F)c2ncc(C(=O)NCc3ccc(Cl)cc3)c(O)c2c1` (stereo not shown) [Example 132, N-(4-Chlorobenzyl)-8-fluoro-4-hydroxy-6-(3-hydroxybutyl)-3-quinolinecarboxamide], the IC50 falls from 6.7 µM to 0.64 µM (10-fold).

Going from `O=C(NCc1ccc(Cl)cc1)c1cnc2c(F)cc(S(=O)(=O)NCc3cccc4ccccc34)cc2c1O` [Example 192, N-(4-Chlorobenzyl)-8-fluoro-4-hydroxy-6-{[(1-naphthylmethyl)aminor]-sulfonyl}-3-quinolinecarboxamide] to `O=C(NCc1ccc(Cl)cc1)c1cnc2c(F)cc(S(=O)(=O)NCCCc3ccccc3)cc2c1O` [Example 234, N-(4-chlorobenzyl)-8-fluoro-4-hydroxy-6-{[(3-phenylpropyl)amino]sulfonyl}-3-quinolinecarboxamide], the IC50 rises from 1.6 µM to 8.9 µM (5.6-fold).

First: CCSCC#Cc1cc(F)c2ncc(C(=O)NCc3ccc(Cl)cc3)c(O)c2c1 [Example 127, N-[(4-Chlorophenyl)methyl]-6-[3-(ethylthio)-1-propynyl]-8-fluoro-4-hydroxy-3-quinolinecarboxamide]
Second: CC(=O)CCc1cc(F)c2ncc(C(=O)NCc3ccc(Cl)cc3)c(O)c2c1 [Example 160, N-(4-Chlorobenzyl)-8-fluoro-4-hydroxy-6-(3-oxobutyl)-3-quinolinecarboxamide]
The IC50 of the first is 20-fold higher: 23.5 µM for the first, 1.2 µM for the second. The second is the more potent here.

Compared with `COc1c(F)cc2c(O)c(C(=O)NCc3ccc(Cl)cc3)cnc2c1F` [Example 82, N-((4-Chlorophenyl)methyl)-6,8-difluoro-4-hydroxy-7-methoxy-3-quinolinecarboxamide], `COc1c(F)c(F)cc2c(O)c(C(=O)NCc3ccc(Cl)cc3)cnc12` [Example 79, N-((4-Chlorophenyl)methyl)-6,7-difluoro-4-hydroxy-8-methoxy-3-quinolinecarboxamide] is 2.6-fold lower in IC50: 2.5 µM for the first, 0.96 µM for the second.

Going from `O=C(NCc1ccc(Cl)cc1)c1cnc2c(F)cc(S(=O)(=O)NCCCN3CCOCC3)cc2c1O` [Example 214, N-(4-chlorobenzyl)-8-fluoro-4-hydroxy-6-{[(3-morpholinopropyl)amino]sulfonyl}-3-quinolinecarboxamide] to `CC(C)(N)CNS(=O)(=O)c1cc(F)c2ncc(C(=O)NCc3ccc(Cl)cc3)c(O)c2c1` [Example 264, 6-{[(2-amino-2-methylpropyl)amino]sulfonyl}-N-(4-chlorobenzyl)-8-fluoro-4-hydroxy-3-quinolinecarboxamide], the IC50 rises from 29.7 µM to 90.2 µM (3-fold).

Going from `O=C(NCc1ccc(Cl)cc1)c1cnc2c(F)cc(/C=C\CCO)cc2c1O` [Example 104, N-(4-Chlorobenzyl)-8-fluoro-4-hydroxy-6-[(Z)-4-hydroxy-1-butenyl]-3-quinolinecarboxamide] to `O=C(O)CCc1cc(F)c2ncc(C(=O)NCc3ccc(Cl)cc3)c(O)c2c1` [Example 114, 3-(3-{[(4-Chlorobenzyl)amino]carbonyl}-8-fluoro-4-hydroxy-6-quinolinyl)propanoic acid], the IC50 rises from < 0.78 µM to 2.2 µM.

`O=C(NCc1ccc(Cl)cc1)c1cnc2c(F)cc(S(=O)(=O)N(CCO)CCO)cc2c1O` [Example 195, 6-{[Bis(2-hydroxyethyl)amino]sulfonyl}-N-(4-chlorobenzyl)-8-fluoro-4-hydroxy-3-quinolinecarboxamide] and `O=C(NCc1ccc(Cl)cc1)c1cnc2c(F)cc(S(=O)(=O)NCc3ccco3)cc2c1O` [Example 194, N-(4-Chlorobenzyl)-8-fluoro-6-{[(2-furylmethyl)amino]sulfonyl}-4-hydroxy-3-quinolinecarboxamide] are within 1.5-fold of each other in IC50: 18.3 µM for the first, 15.3 µM for the second.

Going from `O=C(c1ccccc1)c1ccc2ncc(C(=O)NCc3ccc(Cl)cc3)c(O)c2c1` [Example 280, 6-Benzoyl-N-(4-chlorobenzyl)-4-hydroxy-3-quinolinecarboxamide] to `N#Cc1ccc2ncc(C(=O)NCc3ccc(Cl)cc3)c(O)c2c1` [Example 24, N-[(4-Chlorophenyl)methyl]-6-cyano-4-hydroxy-3-quinoline-carboxamide], the IC50 falls from 57.8 µM to 4.9 µM (12-fold).

`NC(=S)c1ccc2c(O)c(C(=O)NCc3ccc(Cl)cc3)cnc2c1` [Example 102, 7-(Aminocarbothioyl)-N-(4-chlorobenzyl)-4-hydroxy-3-quinoline-carboxamide] and `COCCOc1c(F)cc2c(O)c(C(=O)NCc3ccc(Cl)cc3)cnc2c1F` [Example 83, N-((4-Chlorophenyl)methyl)-6,8-difluoro-4-hydroxy-7-(2-(methoxy)ethoxy)-3-quinolinecarboxamide] are within 1.5-fold of each other in IC50: 4.6 µM for the first, 4.3 µM for the second.

First: O=C(NCc1ccc(Cl)cc1)c1cnc2c(F)cc(S(=O)(=O)NCc3cccc4ccccc34)cc2c1O [Example 206, N-(4-chlorobenzyl)-8-fluoro-4-hydroxy-6-{[(1-naphthylmethyl)amino]sulfonyl}-3-quinolinecarboxamide]
Second: Cc1ccc(CNS(=O)(=O)c2cc(F)c3ncc(C(=O)NCc4ccc(Cl)cc4)c(O)c3c2)cc1C [Example 252, N-(4-chlorobenzyl)-6-{[(3,4-dimethylbenzyl)amino]sulfonyl}-8-fluoro-4-hydroxy-3-quinolinecarboxamide]
The IC50 of the first is 7.9-fold lower: 2.4 µM for the first, 18.9 µM for the second.

Compared with `O=C(Nc1ccccc1)OCCCc1cc(F)c2ncc(C(=O)NCc3ccc(Cl)cc3)c(O)c2c1` [Example 159, 3-(3-{[(4-Chlorobenzyl)amino]carbonyl}-8-fluoro-4-hydroxy-6-quinolinyl)propyl phenylcarbamate], `O=C(O)CCCCCCCCCCNS(=O)(=O)c1cc(F)c2ncc(C(=O)NCc3ccc(Cl)cc3)c(O)c2c1` [Example 226, 11-{[(3-{[(4-chlorobenzyl)amino]carbonyl}-8-fluoro-4-hydroxy-6-quinolinyl)sulfonyl]amino}undecanoic acid] is 3.7-fold higher in IC50: 5 µM for the first, 18.5 µM for the second. The first is the more potent here.

`O=C(NCc1ccc(Cl)cc1)c1cnc2c(F)cc(S(=O)(=O)NCc3cc(C(F)(F)F)cc(C(F)(F)F)c3)cc2c1O` [Example 236, 6-({[3,5-bis(trifluoromethyl)benzyl]amino}sulfonyl)-N-(4-chlorobenzyl)-8-fluoro-4-hydroxy-3-quinolinecarboxamide] and `Cc1cc(F)c2ncc(C(=O)NNc3ccc(Cl)cc3)c(O)c2c1` [Example 55, 8-Fluoro-4-hydroxy-6-methyl-3-quinolinecarboxylic acid 2-(4-chlorophenyl)hydrazide] are within 1.5-fold of each other in IC50: 6.6 µM for the first, 5 µM for the second.

`CN(CCS(=O)(=O)O)C(=O)CCCCCCC(=O)OCC#Cc1cc(F)c2ncc(C(=O)NCc3ccc(Cl)cc3)c(O)c2c1` [Example 275] showed an IC50 of 28.4 µM.
